# Results taken from patent publication US11464770B2, “Anticancer pharmaceutical composition” (NATIONAL CANCER CENTER, priority 2016, dated 2022).
# pIC50: −log10 of the molar value. Where two headings read alike, the source gives them in different places.
# How the values were obtained:
# [1] = test system: ovarian cancer cell lines; test: Cell based assay, cell viability (CellTiter-Glo), ovarian cancer cell lines; conditions: Homo sapiens; OVCAR-3 cells
# Description: (§1) Commercially available bladder cancer, prostate cancer, lung cancer, breast cancer, blood cancer, pancreatic cancer, colorectal cancer, brain cancer, neuroblastoma, melanoma, liver cancer, cervical carcinoma, ovarian cancer, renal cancer, and papilloma cell lines were each treated with trypsin-EDTA and cultured, followed by being seeded in each well of a 96 well plate. After 24 hours of treatment at constant temperature, the respective cells were treated with the candidate compound so that a final concentration became 0 to 2 μM. The treated cells were additionally cultured for 72 hours, and cell viability was measured by using an ATP detection method (CellTiter-Glo® Luminescent Cell Viability Assay, Promega).
# [2] = test system: pancreatic cancer cell lines (e.g. MIA PaCa-2); test: Cell based assay, cell viability (CellTiter-Glo), pancreatic cancer cell lines; conditions: Homo sapiens
# Description: as §1
# [3] = pancreatic cancer cell line AsPC-1, 72 hours, read-out: IC50, AsPC-1
# [4] = pancreatic cancer cell line BxPC-3, 72 hours, read-out: IC50, BxPC-3
# [5] = pancreatic cancer cell line CFPAC-1, 72 hours, read-out: IC50, CFPAC-1
# [6] = pancreatic cancer cell line Capan-1, 72 hours, read-out: IC50, Capan-1
# [7] = pancreatic cancer cell line Capan-2, 72 hours, read-out: IC50, Capan-2
# [8] = pancreatic cancer cell line MIA PaCa-2, 72 hours, read-out: IC50, MIA PaCa-2
# [9] = pancreatic cancer cell line PANC-1, 72 hours, read-out: IC50, PANC-1
Structure (SMILES),pIC50 [1],"pIC50 [2, 3]","pIC50 [2, 4]","pIC50 [2, 5]","pIC50 [2, 6]","pIC50 [2, 7]","pIC50 [2, 8]","pIC50 [2, 9]"
"CC(=O)c1c(SCc2ccc([N+](=O)[O-])cc2)[nH]c2c(Br)ccc(Cl)c2c1=O [Compound 32, 3-acetyl-8-bromo-5-chloro-2-((4-nitrobenzyl)thio)quinolin-4(1H)-one]",< 5.70,< 5.70,< 5.70,< 5.00,< 5.70,< 5.70,< 5.70,< 5.70
"CSc1c(C(C)=O)c(=O)c2c(Cl)ccc(Br)c2n1S(=O)(=O)c1ccc(C(C)(C)C)cc1 [Compound 40, 3-acetyl-8-bromo-1-((4-(tert-butyl)phenyl)sulfonyl)-5-chloro-2-(methylthio)quinolin-4(1H)-one]",< 5.70,< 5.70,< 5.70,< 5.00,< 5.70,< 5.70,< 5.70,< 5.70
"CC(=O)c1c([S+]([O-])Cc2ccc(N)nc2)[nH]c2c(Br)ccc(Cl)c2c1=O (stereo not shown) [Compound 100, 3-acetyl-2-(((6-aminopyridin-3-yl)methyl)sulfinyl)-8-bromo-5-chloroquinolin-4(1H)-one]",< 5.70,< 5.70,< 5.70,< 5.00,< 5.70,< 5.70,< 5.70,< 5.70
"CC(=O)c1c([S+]([O-])Cc2ccc(C(=O)c3ccccc3)cc2)[nH]c2c(Br)ccc(Cl)c2c1=O (stereo not shown) [Compound 63, 3-acetyl-2-((4-benzoylbenzyl)sulfinyl)-8-bromo-5-chloroquinolin-4(1H)-one]",< 5.70,< 5.70,< 5.70,< 5.00,< 5.70,< 5.70,< 5.70,< 5.70
"CC(=O)c1c([S+](C)[O-])n(S(=O)(=O)c2ccc(C(C)(C)C)cc2)c2c(Br)ccc(Cl)c2c1=O (stereo not shown) [Compound 42, 3-acetyl-8-bromo-1-((4-(tert-butyl)phenyl)sulfonyl)-5-chloro-2-(methylsulfinyl)quinolin-4(1H)-one]",< 5.70,< 5.70,< 5.70,< 5.00,< 5.70,< 5.70,< 5.70,< 5.70
"CSc1[nH]c2ccc(F)cc2c(=O)c1C(C)=O [Compound 8, 1-(6-fluoro-4-hydroxy-2-(methylthio)quinolin-3-yl)ethan-1-one]",< 5.70,< 5.70,< 5.70,< 5.00,< 5.70,< 5.70,< 5.70,< 5.70
"CC(=O)c1c([S+]([O-])Cc2ccccc2)n(C(=O)c2ccc(Br)cc2)c2c(Br)ccc(Cl)c2c1=O (stereo not shown) [Compound 20, 3-acetyl-2-(benzylsulfinyl)-8-bromo-1-(4-bromobenzoyl)-5-chloroquinolin-4(1H)-one]",< 5.70,< 5.70,< 5.70,< 5.00,< 5.70,< 5.70,< 5.70,< 5.70
"CC(=O)c1c([S+]([O-])Cc2ccc(S(F)(F)(F)(F)F)cc2F)[nH]c2c(Br)ccc(Cl)c2c1=O (stereo not shown) [Compound 69, 3-acetyl-8-bromo-5-chloro-2-((2-fluoro-4-(pentafluoro-16-sulfanyl)benzyl)sulfinyl)quinolin-4(1H)-one]",5.95,< 5.70,< 5.70,< 5.00,< 5.70,< 5.70,5.86,< 5.70
"CC(=O)c1c(SCc2ccc(Cl)cc2)[nH]c2c(Br)ccc(Cl)c2c1=O [Compound 10, 3-acetyl-8-bromo-5-chloro-2-((4-chlorobenzyl)thio)quinolin-4(1H)-one]",< 5.70,< 5.70,< 5.70,< 5.00,< 5.70,< 5.70,< 5.70,< 5.70
"CC(=O)c1c([S+]([O-])Cc2cccc(I)c2)[nH]c2c(Br)ccc(Cl)c2c1=O (stereo not shown) [Compound 48, 3-acetyl-8-bromo-5-chloro-2-((3-iodobenzyl)sulfinyl)quinolin-4(1H)-one]",< 5.70,< 5.70,< 5.70,< 5.00,< 5.70,< 5.70,< 5.70,< 5.70
"CC(=O)c1c([S+](C)[O-])n(C(C)=O)c2c(Br)ccc(Cl)c2c1=O (stereo not shown) [Compound 19, 1,1′-(8-bromo-5-chloro-2-(methylsulfinyl)-4-oxoquinoline-1,3(4H)-diyl)bis(ethan-1-one)]",< 5.70,< 5.70,< 5.70,< 5.00,< 5.70,< 5.70,< 5.70,< 5.70
"CC(=O)c1c([S+]([O-])Cc2ccccc2)nc2c(Br)ccc(Cl)c2c1O (stereo not shown) [Compound 53, 1-(2-(benzylsulfinyl)-8-bromo-5-chloro-4-hydroxyquinolin-3-yl)ethan-1-one]",< 5.70,< 5.70,< 5.70,< 5.00,< 5.70,< 5.70,< 5.70,< 5.70
"CC(=O)c1c(SCc2ccccc2)[nH]c2c(Br)ccc(Cl)c2c1=O [Compound 3, 3-acetyl-2-(benzylthio)-8-bromo-5-chloroquinolin-4(1H)-one]",< 5.70,< 5.70,< 5.70,< 5.00,< 5.70,< 5.70,< 5.70,< 5.70
"CC(=O)c1c([S+]([O-])Cc2cc(C)on2)[nH]c2c(F)ccc(F)c2c1=O (stereo not shown) [Compound 82, 3-acetyl-5,8-difluoro-2-(((5-methylisoxazol-3-yl)methyl)sulfinyl)quinolin-4(1H)-one]",< 5.70,< 5.70,< 5.70,< 5.00,< 5.70,< 5.70,< 5.70,< 5.70
"COC(=O)c1ccc(C[S+]([O-])c2[nH]c3c(Cl)ccc(Cl)c3c(=O)c2C(C)=O)cc1 (stereo not shown) [Compound 91, methyl 4-(((3-acetyl-5,8-dichloro-4-oxo-1,4-dihydroquinolin-2-yl)sulfinyl)methyl)benzoate]",5.76,< 5.70,< 5.70,< 5.00,< 5.70,< 5.70,5.85,< 5.70
"CC(=O)c1c(S(=O)(=O)Cc2ccccc2)nc2c(Br)ccc(Cl)c2c1O [Compound 54, 1-(2-(benzylsulfonyl)-8-bromo-5-chloro-4-hydroxyquinolin-3-yl)ethan-1-one]",< 5.70,< 5.70,< 5.70,< 5.00,< 5.70,< 5.70,< 5.70,< 5.70

# Results, then the compound that gave them:
pIC50 [1],"pIC50 [2, 3]","pIC50 [2, 4]","pIC50 [2, 5]","pIC50 [2, 6]","pIC50 [2, 7]","pIC50 [2, 8]","pIC50 [2, 9]",Structure (SMILES)
5.91,< 5.70,< 5.70,< 5.00,< 5.70,< 5.70,5.90,< 5.70,"CC(=O)c1c([S+]([O-])Cc2ccc(C#N)s2)[nH]c2c(Br)ccc(Cl)c2c1=O (stereo not shown) [Compound 98, 5-(((3-acetyl-8-bromo-5-chloro-4-oxo-1,4-dihydroquinolin-2-yl)sulfinyl)methyl)thiophene-2-carbonitrile]"
< 5.70,< 5.70,< 5.70,< 5.00,< 5.70,< 5.70,< 5.70,< 5.70,"CSc1c(C(C)=O)c(=O)c2c(Cl)ccc(Br)c2n1C(C)=O [Compound 18, 1,1′-(8-bromo-5-chloro-2-(methylthio)-4-oxoquinoline-1,3(4H)-diyl)bis(ethan-1-one)]"
< 5.70,< 5.70,< 5.70,< 5.00,< 5.70,< 5.70,< 5.70,< 5.70,"COCCNc1ccc(C[S+]([O-])c2[nH]c3c(Br)ccc(Cl)c3c(=O)c2C(C)=O)cn1 (stereo not shown) [Compound 105, 3-acetyl-8-bromo-5-chloro-2-(((6-((2-methoxyethyl)amino)pyridin-3-yl)methyl)sulfinyl)quinolin-4(1H)-one]"
< 5.70,< 5.70,< 5.70,< 5.00,< 5.70,< 5.70,< 5.70,< 5.70,"CC(=O)c1c([S+]([O-])CC#N)[nH]c2c(Br)ccc(Cl)c2c1=O (stereo not shown) [Compound 65, 2-((3-acetyl-8-bromo-5-chloro-4-oxo-1,4-dihydroquinolin-2-yl)sulfinyl)acetonitrile]"
6.15,< 5.70,< 5.70,< 5.00,< 5.70,< 5.70,5.80,< 5.70,"CC(=O)c1c([S+](C)[O-])[nH]c2c(Br)ccc(Cl)c2c1=O (stereo not shown) [Compound 1, 3-acetyl-8-bromo-5-chloro-2-(methylsulfinyl)quinolin-4(1H)-one]"
< 5.70,< 5.70,< 5.70,< 5.00,< 5.70,< 5.70,< 5.70,< 5.70,"CC(=O)c1c(Sc2ccccc2)[nH]c2c(Br)ccc(Cl)c2c1=O [Compound 12, 3-acetyl-8-bromo-5-chloro-2-(phenylthio)quinolin-4(1H)-one]"
< 5.70,< 5.70,< 5.70,< 5.00,< 5.70,< 5.70,< 5.70,< 5.70,"COCSc1[nH]c2c(Br)ccc(Cl)c2c(=O)c1C(C)=O [Compound 61, 3-acetyl-8-bromo-5-chloro-2-((methoxymethyl)thio)quinolin-4(1H)-one]"
< 5.70,< 5.70,< 5.70,< 5.00,< 5.70,< 5.70,< 5.70,< 5.70,"CC(=O)c1c(SCc2cc(F)cc(F)c2)[nH]c2c(Br)ccc(Cl)c2c1=O [Compound 45, 3-acetyl-8-bromo-5-chloro-2-((3,5-difluorobenzyl)thio)quinolin-4(1H)-one]"
6.03,5.81,< 5.70,< 5.00,5.78,< 5.70,6.16,< 5.70,"CC(=O)c1c([S+]([O-])Cc2ccc(C(F)(F)F)nc2C)[nH]c2c(Br)ccc(Cl)c2c1=O (stereo not shown) [Compound 102, 3-acetyl-8-bromo-5-chloro-2-(((2-methyl-6-(trifluoromethyl)pyridin-3-yl)methyl)sulfinyl)quinolin-4(1H)-one]"
< 5.70,< 5.70,< 5.70,< 5.00,< 5.70,< 5.70,< 5.70,< 5.70,"CC(=O)c1c(SC(C)C)[nH]c2c(Br)ccc(Cl)c2c1=O [Compound 24, 3-acetyl-8-bromo-5-chloro-2-(isopropylthio)quinolin-4(1H)-one]"
